The numbers were not newly measured in patent US20040029723A1, “Novel aminophosphonium compounds” (Clariant GmbH, priority 1999, published 2004), which cites them from elsewhere.

Structures are written as SMILES.

For this series the following is noted: background statement, no test or data described.

Regarding `CCN(CC)[P+](N(CC)CC)(N(CC)CC)N(CC)CC.[Br-]` [Tetrakis(diethylamino)phosphonium Bromide], the dermal toxicity entry is “very high”.
